From patent US20230147962A1, “FIBROBLAST ACTIVATION PROTEIN LIGANDS FOR TARGETED DELIVERY APPLICATIONS” (PHILOCHEM AG, priority 2020, published 2023)
*1 amine or outer side, *2 acyl side, *3 side chain or, on linkers, in order; H or OH if unused. Where a SMILES comes first, the peptide text is derived from it. The star is where a group is joined. Fluorescein(5-Mal) = O=C1OC2(c3ccc(O)cc3Oc3cc(O)ccc32)c2ccc(N3C(=O)CC(*)C3=O)cc21; X1 = N#C[C@@H]1CC(F)(F)CN1C(=O)CNC(=O)c1ccnc2c(N*)cccc12; Suc = O=C(CCC(=O)[*:2])[*:1]

Columns and labels:
murine FAP = target: T1, murine FAP (Mus musculus, UniProt P97321); assay: Affinity measurement to murine FAP by fluorescence polarization; type: binding; settings: binder 10 nM, read-out: KD to mFAP
T1 sequence (P97321 1-761): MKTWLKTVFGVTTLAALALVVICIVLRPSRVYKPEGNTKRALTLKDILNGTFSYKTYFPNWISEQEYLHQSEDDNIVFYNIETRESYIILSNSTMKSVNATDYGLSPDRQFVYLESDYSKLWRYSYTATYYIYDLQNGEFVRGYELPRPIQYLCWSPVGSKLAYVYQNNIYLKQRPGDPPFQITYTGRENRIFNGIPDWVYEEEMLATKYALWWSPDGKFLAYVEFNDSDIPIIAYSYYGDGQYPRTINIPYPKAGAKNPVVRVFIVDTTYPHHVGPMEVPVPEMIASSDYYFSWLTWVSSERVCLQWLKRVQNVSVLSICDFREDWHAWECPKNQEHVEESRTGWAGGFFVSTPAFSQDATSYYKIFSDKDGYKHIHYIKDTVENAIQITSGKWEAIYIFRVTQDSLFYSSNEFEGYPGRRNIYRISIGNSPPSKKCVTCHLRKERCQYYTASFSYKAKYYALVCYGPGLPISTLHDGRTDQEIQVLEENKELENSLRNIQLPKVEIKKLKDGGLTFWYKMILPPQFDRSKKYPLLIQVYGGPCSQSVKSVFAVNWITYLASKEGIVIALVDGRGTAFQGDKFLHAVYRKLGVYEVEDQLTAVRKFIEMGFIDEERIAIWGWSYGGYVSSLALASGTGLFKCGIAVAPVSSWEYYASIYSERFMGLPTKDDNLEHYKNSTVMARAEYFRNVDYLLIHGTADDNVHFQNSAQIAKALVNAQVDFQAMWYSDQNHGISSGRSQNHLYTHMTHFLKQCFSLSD
Method: Fluorescence polarization experiments were performed in 384-well plates (non-binding, ps, f-bottom, black, high volume, 30 μL final volume). Stock solutions of human FAP (4 μM) and murine FAP (5 μM) were serially diluted with buffer (50 mM Tris, 100 mM NaCl, 1 mM EDTA, pH=7.4), while the final concentration of the binders was kept constant at 10 nM. The fluorescence anisotropy was measured on a TECAN microtiter plate reader. Experiments were performed in triplicate and the mean anisotropy values fitted using Prism 7.

mFAP = target: T2, mFAP (Mus musculus, UniProt P97321); assay: Chromatographic co-elution (PD-10) of ligand-protein complexes, mFAP; type: binding, murine; settings: PD-10 column, mFAP 5 μM
T2 sequence (P97321 1-761): T1 sequence (P97321 1-761)
Method: A PD-10 column was pre-equilibrated with assay buffer (50 mM Tris, 100 mM NaCl, 1 mM EDTA, pH=7.4) prior to the loading of the complex. A mixture of different proteins (hFAP=2 μM, mFAP=5 μM) and conjugate 15 (100 nM) were incubated and loaded on the column. The mixture was flushed using the assay buffer. The flow through was collected in 96-well plates and the fluorescence intensity was measured immediately on a TECAN microtiter plate reader, monitoring the fluorescence at an excitation wavelength of 485 nm and an emission wavelength of 535 nm. The concentration of the proteins was estimated by measuring the absorbance at 280 nm using a Nanodrop 2000/2000c spectrophotometer.

SK-RC-52.hFAP [1] = assay: Confocal microscopy on SK-RC-52.hFAP; type: cell-based; settings: t=0 and 1 h
Method: (§1) SK-RC-52.hFAP and SK-RC-52 cells were seeded into 4-well cover slip chamber plates at a density of 10^4 cells per well in RPMI medium (1 mL) supplemented with 10% FCS, AA and HEPES (10 mM) and allowed to grow for 24 hours under standard culture conditions. Hoechst 33342 nuclear dye was used to stain nuclear structures.
(§2) The culture medium was replaced with fresh medium containing conjugate 15 (100 nM). Randomly selected colonies imaged on a SP8 confocal microscope equipped with an AOBS device (Leica Microsystems).

SK-RC-52 Wild type = assay: Confocal microscopy on SK-RC-52 wild type; type: cell-based; settings: negative control cells
Method: as §1, §2

SK-RC-52.hFAP [2] = assay: FACS analysis on SK-RC-52 wild type and SK-RC-52.hFAP; type: cell-based; settings: 10 nM
Method: (§3) SK-RC-52.hFAP, SK-RC-52.wt, HT-1080.wt and HT-1080.hFAP were detached from culture plates using Accutase, counted and suspended to a final concentration of 1.5×10^6 cells/mL in a 1% v/v solution of FCS in PBS pH 7.4. […] Cells were washed once with 200 μL 1% v/v solution of FCS in PBS pH 7.4 (200 μL), spun down, resuspended in a 1% v/v solution of FCS in PBS pH 7.4 (300 μL) and analyzed on a CytoFLEX cytometer (Beckman Coulter). The raw data were processed with the FlowJo 10.4 software.

HT-1080.hFAP = assay: FACS analysis on HT-1080 wild type and HT-1080.hFAP; type: cell-based; settings: 10 nM
Method: as §3

[3] = test system: SK-RC-52.hFAP renal cell carcinoma xenografts; assay: Ex vivo targeting experiment, SK-RC-52.hFAP xenografts; type: in vivo, BALB/C nu/nu mice; settings: 40 nmol intravenous, ex vivo organ images 1 h
Method: SK-RC-52.hFAP cells were grown to 80% confluence and detached with Trypsin-EDTA 0.05%. Cells were re-suspended in HBSS medium to a final concentration of 5×10^7 cells/mL.
Mice bearing subcutaneous SK-RC-52.hFAP tumour was injected intravenously with conjugate 15 (40 nmol in sterile PBS, pH 7.4). Animals were sacrificed by CO2 asphyxiation 1h after the intravenous injection and the organs and the tumour were excised, snap-frozen in OCT medium and stored at −80° C. Cryostat sections ([…]) were cut and nuclei were stained with Fluorescence Mounting Medium (Dako Omnis, Agilent). Images were obtained using an Axioskop2 mot plus microscope (Zeiss) and analyzed by ImageJ 1.53 software.

N#C[C@@H]1CC(F)(F)CN1C(=O)CNC(=O)c1ccnc2c(NC(=O)CCC(=O)N[C@@H](CC(=O)O)C(=O)N[C@@H](CCCCN)C(=O)N[C@@H](CC(=O)O)C(=O)N[C@@H](CSC3CC(=O)N(c4ccc5c(c4)C(=O)OC54c5ccc(O)cc5Oc5cc(O)ccc54)C3=O)C(=O)O)cccc12 (stereo partly drawn) [Conjugate 15, (2R,5S,8S,11S)-8-(4-aminobutyl)-5,11-bis(carboxymethyl)-16-((4-((2-((S)-2-cyano-4,4-difluoropyrrolidin-1-yl)-2-oxoethyl)carbamoyl)quinolin-8-yl)amino)-2-(((1-(3′,6′-dihydroxy-3-oxo-3H-spiro[isobenzofuran-1,9′-xanthen]-5-yl)-2,5-dioxopyrrolidin-3-yl)thio)methyl)-4,7,10,13,16-pentaoxo-3,6,9,12-tetraazahexadecanoic acid] ({X1-Suc}-DKDC(Fluorescein(5-Mal))-OH)
Kd (murine FAP): 11.6 nM
complex formation with mFAP in PD-10 co-elution (mFAP): stable complex is formed
accumulation on SK-RC-52.hFAP cells (SK-RC-52.hFAP [1]): accumulation of conjugate 15 on the cell membrane
accumulation on SK-RC-52 Wild type cells (SK-RC-52 Wild type): no accumulation on the cell membrane
cellular binding, SK-RC-52 Wild type vs SK-RC-52.hFAP (SK-RC-52.hFAP [2]): FAP-specific cellular binding
cellular binding, HT-1080 Wild type vs HT-1080.hFAP (HT-1080.hFAP): FAP-specific cellular binding
targeting performance in SK-RC-52.hFAP xenografts [3]: rapidly and homogeneously localizes at the tumour site in vivo 1 hour after the intravenous injection, with a high tumour-to-organs selectivity
